Measurements reported in article PMC6199744, “Development of Chemical Proteomics for the Folateome and Analysis of the Kinetoplastid Folateome” (ACS Infectious Diseases, 2018).
Where two headings read alike, the source gives them in different places.

Assays:
Assay type in all cases: binding
[1] = target: T1, HeLa cell extract proteins (Homo sapiens, UniProt P11940)
T1 construct: endogenous in cells; host or cells: HeLa cell extract

[2] = target: T2, HeLa cell extract proteins (Homo sapiens, UniProt Q9Y3F4)
T2 construct: endogenous in cells; host or cells: HeLa cell extract
T2 sequence (Q9Y3F4 1-350): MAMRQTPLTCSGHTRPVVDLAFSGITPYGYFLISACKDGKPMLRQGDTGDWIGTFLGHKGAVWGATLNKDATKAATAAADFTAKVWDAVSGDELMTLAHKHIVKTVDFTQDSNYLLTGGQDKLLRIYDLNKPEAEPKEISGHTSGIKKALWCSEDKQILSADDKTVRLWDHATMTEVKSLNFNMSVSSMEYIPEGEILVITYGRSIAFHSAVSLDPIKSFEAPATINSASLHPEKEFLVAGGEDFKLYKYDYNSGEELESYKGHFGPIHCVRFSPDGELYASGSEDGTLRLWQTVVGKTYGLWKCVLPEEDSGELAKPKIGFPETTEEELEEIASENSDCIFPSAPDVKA

[3] = target: T3, HeLa cell extract proteins (Homo sapiens, UniProt Q9BUJ2)
T3 construct: endogenous in cells; host or cells: HeLa cell extract
T3 sequence (Q9BUJ2 1-856): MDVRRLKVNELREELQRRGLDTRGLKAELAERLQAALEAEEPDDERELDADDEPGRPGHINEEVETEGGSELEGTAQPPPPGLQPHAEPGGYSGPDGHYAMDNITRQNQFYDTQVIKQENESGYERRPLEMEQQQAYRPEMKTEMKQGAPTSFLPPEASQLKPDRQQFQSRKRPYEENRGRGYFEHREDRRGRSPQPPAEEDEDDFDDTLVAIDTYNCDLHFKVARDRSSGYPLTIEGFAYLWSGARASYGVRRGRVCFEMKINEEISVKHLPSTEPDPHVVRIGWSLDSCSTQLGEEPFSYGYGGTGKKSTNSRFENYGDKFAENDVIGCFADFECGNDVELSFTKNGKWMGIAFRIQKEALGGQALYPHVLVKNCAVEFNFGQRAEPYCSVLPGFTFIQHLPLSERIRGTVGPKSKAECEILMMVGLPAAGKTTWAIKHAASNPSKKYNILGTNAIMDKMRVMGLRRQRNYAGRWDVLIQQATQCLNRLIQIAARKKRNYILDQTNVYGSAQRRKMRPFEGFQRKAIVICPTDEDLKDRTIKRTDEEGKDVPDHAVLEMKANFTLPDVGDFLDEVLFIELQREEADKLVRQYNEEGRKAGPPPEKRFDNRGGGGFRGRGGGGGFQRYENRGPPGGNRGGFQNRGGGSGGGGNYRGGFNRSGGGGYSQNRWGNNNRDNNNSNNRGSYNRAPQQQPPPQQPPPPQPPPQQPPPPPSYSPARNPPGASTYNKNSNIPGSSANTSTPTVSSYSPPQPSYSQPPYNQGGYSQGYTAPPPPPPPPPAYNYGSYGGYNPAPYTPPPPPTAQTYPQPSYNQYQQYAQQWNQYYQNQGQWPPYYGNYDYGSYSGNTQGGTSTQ

[4] = target: T4, HeLa cell extract proteins (Homo sapiens, UniProt P07437)
T4 construct: endogenous in cells; host or cells: HeLa cell extract
T4 sequence (P07437 whole entry): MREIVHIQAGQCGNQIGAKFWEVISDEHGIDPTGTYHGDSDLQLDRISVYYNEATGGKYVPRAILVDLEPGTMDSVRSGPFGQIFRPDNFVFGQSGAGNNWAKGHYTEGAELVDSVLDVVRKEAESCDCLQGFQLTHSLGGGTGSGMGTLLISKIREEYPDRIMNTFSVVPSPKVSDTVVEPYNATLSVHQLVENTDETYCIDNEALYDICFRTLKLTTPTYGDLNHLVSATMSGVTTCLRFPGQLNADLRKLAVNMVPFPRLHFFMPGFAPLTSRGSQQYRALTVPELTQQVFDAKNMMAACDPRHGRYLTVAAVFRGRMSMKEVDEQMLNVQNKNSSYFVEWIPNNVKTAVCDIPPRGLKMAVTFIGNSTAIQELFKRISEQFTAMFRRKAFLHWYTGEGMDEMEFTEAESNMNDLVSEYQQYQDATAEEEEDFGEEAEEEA

[5] = target: T5, HeLa cell extract proteins (Homo sapiens, UniProt Q9ULK4)
T5 construct: endogenous in cells; host or cells: HeLa cell extract
T5 sequence (Q9ULK4 1-1368): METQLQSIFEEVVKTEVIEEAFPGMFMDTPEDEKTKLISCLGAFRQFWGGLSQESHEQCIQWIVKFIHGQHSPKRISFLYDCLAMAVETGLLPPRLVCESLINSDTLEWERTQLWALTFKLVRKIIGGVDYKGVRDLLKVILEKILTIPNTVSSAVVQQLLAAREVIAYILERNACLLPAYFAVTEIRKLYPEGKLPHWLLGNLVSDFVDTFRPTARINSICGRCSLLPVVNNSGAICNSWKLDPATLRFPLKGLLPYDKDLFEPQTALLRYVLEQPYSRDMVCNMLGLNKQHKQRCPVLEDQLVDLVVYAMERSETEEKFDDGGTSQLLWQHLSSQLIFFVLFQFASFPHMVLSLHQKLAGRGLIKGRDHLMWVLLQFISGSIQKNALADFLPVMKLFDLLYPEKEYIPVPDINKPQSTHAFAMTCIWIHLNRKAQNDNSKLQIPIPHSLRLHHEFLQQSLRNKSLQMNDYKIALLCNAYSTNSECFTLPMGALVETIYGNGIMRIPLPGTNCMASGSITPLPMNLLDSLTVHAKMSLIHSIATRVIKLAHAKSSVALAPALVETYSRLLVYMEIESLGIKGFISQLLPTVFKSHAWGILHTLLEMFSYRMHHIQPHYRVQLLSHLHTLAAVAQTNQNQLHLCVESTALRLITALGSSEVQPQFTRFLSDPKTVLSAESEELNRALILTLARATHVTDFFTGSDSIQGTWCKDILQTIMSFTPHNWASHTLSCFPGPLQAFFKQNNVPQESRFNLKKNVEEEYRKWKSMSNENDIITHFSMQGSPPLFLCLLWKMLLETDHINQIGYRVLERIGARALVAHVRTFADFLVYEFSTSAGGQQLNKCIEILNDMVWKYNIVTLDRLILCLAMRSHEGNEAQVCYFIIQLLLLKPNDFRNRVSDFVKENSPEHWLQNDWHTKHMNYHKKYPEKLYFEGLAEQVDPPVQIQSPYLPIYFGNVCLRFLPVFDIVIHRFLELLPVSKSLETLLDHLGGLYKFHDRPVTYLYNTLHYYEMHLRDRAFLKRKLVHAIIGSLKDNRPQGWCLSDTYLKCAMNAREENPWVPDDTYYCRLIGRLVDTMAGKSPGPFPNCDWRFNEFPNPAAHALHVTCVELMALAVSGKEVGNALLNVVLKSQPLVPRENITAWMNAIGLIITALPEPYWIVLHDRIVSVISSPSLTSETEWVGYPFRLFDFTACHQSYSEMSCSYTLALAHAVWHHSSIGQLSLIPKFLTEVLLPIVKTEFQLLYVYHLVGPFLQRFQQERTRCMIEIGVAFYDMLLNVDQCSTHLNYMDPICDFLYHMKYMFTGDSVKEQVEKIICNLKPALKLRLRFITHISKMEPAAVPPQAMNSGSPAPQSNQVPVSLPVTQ

[6] = HeLa, captured protein HNRNPUL1

T1 sequence (P11940 whole entry): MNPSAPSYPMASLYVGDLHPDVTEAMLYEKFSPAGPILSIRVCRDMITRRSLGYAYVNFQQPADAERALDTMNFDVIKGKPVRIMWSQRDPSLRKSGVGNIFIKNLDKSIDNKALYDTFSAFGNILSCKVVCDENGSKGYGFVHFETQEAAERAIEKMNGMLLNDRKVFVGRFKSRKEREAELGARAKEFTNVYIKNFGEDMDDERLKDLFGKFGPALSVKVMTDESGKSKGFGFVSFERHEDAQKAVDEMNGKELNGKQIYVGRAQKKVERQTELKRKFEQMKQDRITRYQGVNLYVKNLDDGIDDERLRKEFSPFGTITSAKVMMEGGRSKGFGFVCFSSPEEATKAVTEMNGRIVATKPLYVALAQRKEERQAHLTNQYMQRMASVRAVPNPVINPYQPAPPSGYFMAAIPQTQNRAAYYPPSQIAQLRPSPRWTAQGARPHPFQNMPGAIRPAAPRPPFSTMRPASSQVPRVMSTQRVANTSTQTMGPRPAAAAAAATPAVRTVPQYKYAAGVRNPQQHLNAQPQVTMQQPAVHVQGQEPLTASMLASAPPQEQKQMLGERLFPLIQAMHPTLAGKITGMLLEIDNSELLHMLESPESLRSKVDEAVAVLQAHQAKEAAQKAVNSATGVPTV

## Nc1nc2cccc(-c3ccccc3)c2n1Cc1ccc(Cl)c(Cl)c1 [compound 3]
[1]; HeLa, protein PABPC1
  fold changes relative to vehicle control: 0.94
[2]; protein STRAP, HeLa
  fold changes relative to vehicle control: 1.11
[3]; protein HNRNPUL1, HeLa
  fold changes relative to vehicle control: 0.89
[4]; HeLa, protein TUBB
  fold changes relative to vehicle control: 1.02
[5]; captured protein MED23, HeLa
  fold changes relative to vehicle control: 1.1

## Nc1nc2[nH]cc(CCc3ccc(C(=O)N[C@@H](CCC(=O)O)C(=O)O)cc3)c2c(=O)[nH]1 [PTX, pemetrexed]
[1]
  fold changes relative to vehicle control: 0.96
[2]
  fold changes relative to vehicle control: 1
[3]
  fold changes relative to vehicle control: 1.04
[4]
  fold changes relative to vehicle control: 0.84
[5]
  fold changes relative to vehicle control: 0.95

## Nc1nc2c(c(=O)[nH]1)N(C=O)C(CNc1ccc(C(=O)N[C@@H](CCC(=O)O)C(=O)O)cc1)CN2 (some centres unmarked) [LEU, leucovorin]
[1]; HeLa, protein PABPC1
  fold changes relative to vehicle control: 0.98
[2]; protein STRAP, HeLa
  fold changes relative to vehicle control: 0.85
[3]; [6]
  fold changes relative to vehicle control: 0.99
[4]; protein TUBB, HeLa
  fold changes relative to vehicle control: 0.91
[5]; HeLa, protein MED23
  fold changes relative to vehicle control: 0.91

## CCCCCCOc1cccc(Cc2cnc(N)nc2N)c1 [compound 2]
[1]; HeLa, protein PABPC1
  fold changes relative to vehicle control: 1.19
[2]; protein STRAP, HeLa
  fold changes relative to vehicle control: 1.28
[3]; protein HNRNPUL1, HeLa
  fold changes relative to vehicle control: 0.86
[4]; HeLa, protein TUBB
  fold changes relative to vehicle control: 0.82
[5]; captured protein MED23, HeLa
  fold changes relative to vehicle control: 1.04

## NCCOCCOCC(=O)Nc1nc2ncc(CNc3ccc(C(=O)NC(CCC(=O)O)C(=O)O)cc3)nc2c(=O)[nH]1 (centres unmarked) [compound 6]
[1]; HeLa, protein PABPC1
  fold changes relative to vehicle control: 0.97
[2]; protein STRAP, HeLa
  fold changes relative to vehicle control: 1.08
[3]; [6]
  fold changes relative to vehicle control: 1.05
[4]; protein TUBB, HeLa
  fold changes relative to vehicle control: 0.95
[5]; HeLa, protein MED23
  fold changes relative to vehicle control: 0.93

## CCCCCCOc1ccc(Cc2cnc(N)nc2N)cc1 [compound 1]
[1]; HeLa, protein PABPC1
  fold changes relative to vehicle control: 0.97
[2]; protein STRAP, HeLa
  fold changes relative to vehicle control: 1.07
[3]; protein HNRNPUL1, HeLa
  fold changes relative to vehicle control: 0.83
[4]; HeLa, protein TUBB
  fold changes relative to vehicle control: 0.93
[5]; captured protein MED23, HeLa
  fold changes relative to vehicle control: 0.94

## NCCCNc1ccc(C(=O)NC(CCC(=O)O)C(=O)O)cc1 (centres unmarked) [compound 7]
[1]; HeLa, protein PABPC1
  fold changes relative to vehicle control: 1.05
[2]; protein STRAP, HeLa
  fold changes relative to vehicle control: 0.86
[3]; [6]
  fold changes relative to vehicle control: 1.07
[4]; protein TUBB, HeLa
  fold changes relative to vehicle control: 0.98
[5]; HeLa, protein MED23
  fold changes relative to vehicle control: 0.97
